Results as given in patent US11084829B2, “Ubiquitin-specific-processing protease 7 (USP7) modulators and uses thereof” (RAPT THERAPEUTICS, INC., priority 2018, dated 2021).

The compounds below were run against USP7 (Homo sapiens, UniProt Q93009) (assay: USP7 inhibitory potency (IC50)).
Format: biochemical
Protocol: Activity for compounds described herein is provided in Table 2, wherein potency levels are provided as follows: (Potency: USP7 IC50: A<0.01 μM; B=0.01-0.1 μM; C=>0.1 μM.

USP7, sequence (Q93009 whole entry): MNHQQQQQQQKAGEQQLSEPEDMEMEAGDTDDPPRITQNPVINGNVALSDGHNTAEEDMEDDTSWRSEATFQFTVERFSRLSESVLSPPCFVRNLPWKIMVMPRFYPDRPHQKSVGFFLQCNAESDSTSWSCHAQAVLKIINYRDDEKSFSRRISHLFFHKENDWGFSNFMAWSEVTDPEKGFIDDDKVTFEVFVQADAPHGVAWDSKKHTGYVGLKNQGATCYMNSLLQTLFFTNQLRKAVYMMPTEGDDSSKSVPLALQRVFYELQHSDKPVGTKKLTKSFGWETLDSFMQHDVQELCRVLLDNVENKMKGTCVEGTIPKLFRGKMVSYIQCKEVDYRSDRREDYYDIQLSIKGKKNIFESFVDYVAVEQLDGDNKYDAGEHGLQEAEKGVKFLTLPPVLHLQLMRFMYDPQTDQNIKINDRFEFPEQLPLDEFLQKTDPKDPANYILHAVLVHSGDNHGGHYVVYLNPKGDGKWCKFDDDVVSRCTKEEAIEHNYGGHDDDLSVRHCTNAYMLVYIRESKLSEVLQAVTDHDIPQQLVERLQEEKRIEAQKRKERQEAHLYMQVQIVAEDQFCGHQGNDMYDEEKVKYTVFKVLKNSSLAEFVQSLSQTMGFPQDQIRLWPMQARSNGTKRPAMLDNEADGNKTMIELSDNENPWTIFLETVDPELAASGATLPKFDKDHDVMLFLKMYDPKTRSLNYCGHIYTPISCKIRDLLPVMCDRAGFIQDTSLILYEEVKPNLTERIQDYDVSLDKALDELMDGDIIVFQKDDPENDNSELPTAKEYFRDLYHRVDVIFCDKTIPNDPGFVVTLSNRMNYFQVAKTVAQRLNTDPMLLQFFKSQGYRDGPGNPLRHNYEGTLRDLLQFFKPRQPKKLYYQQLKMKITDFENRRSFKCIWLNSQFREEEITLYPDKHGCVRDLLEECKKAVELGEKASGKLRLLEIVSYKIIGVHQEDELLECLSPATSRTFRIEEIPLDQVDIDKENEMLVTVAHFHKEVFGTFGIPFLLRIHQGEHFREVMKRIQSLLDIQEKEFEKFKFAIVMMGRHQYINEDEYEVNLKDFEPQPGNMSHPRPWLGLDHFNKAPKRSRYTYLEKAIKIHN

`Cc1cc(Cl)cc(-c2ncnc3cc(CN4C(=O)C5CC5C4=O)sc23)c1C[C@@H]1CNCCO1` (stereo partly drawn) [Example 182, 3-((4-(5-chloro-3-methyl-2-(((R)-morpholin-2-yl)methyl)phenyl)thieno[3,2-d]pyrimidin-6-yl)methyl)-3-azabicyclo[3.1.0]hexane-2,4-dione] and `Cc1cc(Cl)cc(-c2ncnc3cc(CN4C(=O)C5CC5C4=O)sc23)c1CC1CNCCCO1` (centres unmarked) [Example 189, 3-((4-(2-((1,4-oxazepan-2-yl)methyl)-5-chloro-3-methylphenyl)thieno[3,2-d]pyrimidin-6-yl)methyl)-3-azabicyclo[3.1.0]hexane-2,4-dione] cannot be ordered by IC50: less than 10 nM for the first, less than 10 nM for the second.

`Cc1cc(Cl)cc(-c2ncnc3cc(CN4C(=O)CN(C)C4=O)sc23)c1CC1CNCC(C)(C)O1` (centres unmarked) [Example 183, 3-((4-(5-chloro-2-((6,6-dimethylmorpholin-2-yl)methyl)-3-methylphenyl)thieno[3,2-d]pyrimidin-6-yl)methyl)-1-methylimidazolidine-2,4-dione] and `Cc1cc(Cl)cc(-c2ncnc3cc(CN4C(=O)CCN(C)C4=O)sc23)c1CC1CNCC(C)(C)O1` (centres unmarked) [Example 193, 3-((4-(5-chloro-2-((6,6-dimethylmorpholin-2-yl)methyl)-3-methylphenyl)thieno[3,2-d]pyrimidin-6-yl)methyl)-1-methyldihydropyrimidine-2,4(1H,3H)-dione] cannot be ordered by IC50: less than 10 nM for the first, less than 10 nM for the second.

`Cc1cc(Cl)cc(-c2ncnc3cc(CN4C(=O)C5CCCCN5C4=O)sc23)c1CC1CNCCO1` (centres unmarked) [Example 184, 2-((4-(5-chloro-3-methyl-2-(morpholin-2-ylmethyl)phenyl)thieno[3,2-d]pyrimidin-6-yl)methyl)tetrahydroimidazo[1,5-a]pyridine-1,3(2H,5H)-dione] and `Cc1cc(Cl)cc(-c2ncnc3cc(CN4C(=O)C5CCCN5C4=O)sc23)c1CC1CNCCO1` (centres unmarked) [Example 187, 2-((4-(5-chloro-3-methyl-2-(morpholin-2-ylmethyl)phenyl)thieno[3,2-d]pyrimidin-6-yl)methyl)tetrahydro-1H-pyrrolo[1,2-c]imidazole-1,3(2H)-dione] cannot be ordered by IC50: less than 10 nM for the first, less than 10 nM for the second.

First: Cc1cc(Cl)cc(-c2ncnc3cc(CN4C(=O)C5CC5C4=O)sc23)c1CC1CNCCOC1 (centres unmarked) [Example 185, 3-((4-(2-((1,4-oxazepan-6-yl)methyl)-5-chloro-3-methylphenyl)thieno[3,2-d]pyrimidin-6-yl)methyl)-3-azabicyclo[3.1.0]hexane-2,4-dione]
Second: Cc1cc(Cl)cc(-c2ncnc3cc(CN4C(=O)C5CC5C4=O)sc23)c1CC1CNCCS1 (centres unmarked) [Example 186, 3-((4-(5-chloro-3-methyl-2-(thiomorpholin-2-ylmethyl)phenyl)thieno[3,2-d]pyrimidin-6-yl)methyl)-3-azabicyclo[3.1.0]hexane-2,4-dione]
The IC50 of the first is higher: 10 to 100 nM for the first, less than 10 nM for the second.

`CCN1CC(=O)N(Cc2cc3ncnc(-c4cc(Cl)cc(C)c4CC4CNCCO4)c3s2)C1=O` (centres unmarked) [Example 188, 3-((4-(5-chloro-3-methyl-2-(morpholin-2-ylmethyl)phenyl)thieno[3,2-d]pyrimidin-6-yl)methyl)-1-ethylimidazolidine-2,4-dione] and `Cc1cc(Cl)cc(-c2ncnc3cc(CN4C(=O)CCC4=O)sc23)c1C[C@@H]1CNCCO1` [Example 197, (R)-1-((4-(5-chloro-3-methyl-2-(morpholin-2-ylmethyl)phenyl)thieno[3,2-d]pyrimidin-6-yl)methyl)pyrrolidine-2,5-dione] cannot be ordered by IC50: less than 10 nM for the first, less than 10 nM for the second.

`Cc1cc(Cl)cc(-c2ncnc3cc(CN4C(=O)CCC4=O)sc23)c1CC1CNCC(C)(C)O1` (centres unmarked) [Example 190, 1-((4-(5-chloro-2-((6,6-dimethylmorpholin-2-yl)methyl)-3-methylphenyl)thieno[3,2-d]pyrimidin-6-yl)methyl)pyrrolidine-2,5-dione] and `Cc1cc(Cl)cc(-c2ncnc3cc(CN4C(=O)C5CCCN5C4=O)sc23)c1CC1CNCC(C)(C)O1` (centres unmarked) [Example 191, 2-((4-(5-chloro-2-((6,6-dimethylmorpholin-2-yl)methyl)-3-methylphenyl)thieno[3,2-d]pyrimidin-6-yl)methyl)tetrahydro-1H-pyrrolo[1,2-c]imidazole-1,3(2H)-dione] cannot be ordered by IC50: less than 10 nM for the first, less than 10 nM for the second.

First: Cc1cc(Cl)cc(-c2ncnc3cc(Cn4c(=O)ccn(C)c4=O)sc23)c1CC1CNCC(C)(C)O1 (centres unmarked) [Example 192, 3-((4-(5-chloro-2-((6,6-dimethylmorpholin-2-yl)methyl)-3-methylphenyl)thieno[3,2-d]pyrimidin-6-yl)methyl)-1-methylpyrimidine-2,4(1H,3H)-dione]
Second: Cc1cc(Cl)cc(-c2ncnc3cc(CN4C(=O)CCC4(C)C#N)sc23)c1CC1CNCC(C)(C)O1 (centres unmarked) [Example 195, 1-((4-(5-chloro-2-((6,6-dimethylmorpholin-2-yl)methyl)-3-methylphenyl)thieno[3,2-d]pyrimidin-6-yl)methyl)-2-methyl-5-oxopyrrolidine-2-carbonitrile]
The IC50 of the first is lower: less than 10 nM for the first, 10 to 100 nM for the second. The first is the more potent here.

`Cc1cc(Cl)cc(-c2ncnc3cc(CN4C(=O)CCC4C(F)(F)F)sc23)c1CC1CNCC(C)(C)O1` (centres unmarked) [Example 194, 1-((4-(5-chloro-2-((6,6-dimethylmorpholin-2-yl)methyl)-3-methylphenyl)thieno[3,2-d]pyrimidin-6-yl)methyl)-5-(trifluoromethyl)pyrrolidin-2-one] and `Cc1cc(Cl)cc(-c2ncnc3cc(CN4C(=O)C5C(C4=O)C5(C)C)sc23)c1C[C@@H]1CNCCO1` (stereo partly drawn) [Example 196, 3-((4-(5-chloro-3-methyl-2-(((R)-morpholin-2-yl)methyl)phenyl)thieno[3,2-d]pyrimidin-6-yl)methyl)-6,6-dimethyl-3-azabicyclo[3.1.0]hexane-2,4-dione] cannot be ordered by IC50: less than 10 nM for the first, less than 10 nM for the second.

Going from `Cc1cc(Cl)cc(-c2ncnc3cc(CN4C(=O)C5CC5C4=O)sc23)c1C[C@H]1CN(C(=O)C(F)(F)F)CCO1` (stereo partly drawn) [Example 198, 3-((4-(5-chloro-3-methyl-2-(((S)-4-(2,2,2-trifluoroacetyl)morpholin-2-yl)methyl)phenyl)thieno[3,2-d]pyrimidin-6-yl)methyl)-3-azabicyclo[3.1.0]hexane-2,4-dione] to `Cc1cc(Cl)cc(-c2ncnc3cc(CN4C(=O)C5CC5C4=O)sc23)c1C[C@@H]1CN(C(=O)C(F)(F)F)CCO1` (stereo partly drawn) [Example 199, 3-((4-(5-chloro-3-methyl-2-(((R)-4-(2,2,2-trifluoroacetyl)morpholin-2-yl)methyl)phenyl)thieno[3,2-d]pyrimidin-6-yl)methyl)-3-azabicyclo[3.1.0]hexane-2,4-dione], the IC50 falls from greater than 100 nM to less than 10 nM.

First: Cc1cc(Cl)cc(-c2ncnc3cc(CN4C(=O)N(C)C(C)(C)C4=O)sc23)c1CC1CNCCO1 (centres unmarked) [Example 200, 3-((4-(5-chloro-3-methyl-2-(morpholin-2-ylmethyl)phenyl)thieno[3,2-d]pyrimidin-6-yl)methyl)-1,5,5-trimethylimidazolidine-2,4-dione]
Second: Cc1cc(Cl)cc(-c2ncnc3cc(CN4C(=O)C5C(C4=O)C5(C)C)sc23)c1C[C@@H]1CN(C(=O)C(F)(F)F)CCO1 (stereo partly drawn) [Example 201, 3-((4-(5-chloro-3-methyl-2-(((R)-4-(2,2,2-trifluoroacetyl)morpholin-2-yl)methyl)phenyl)thieno[3,2-d]pyrimidin-6-yl)methyl)-6,6-dimethyl-3-azabicyclo[3.1.0]hexane-2,4-dione]
The IC50 of the first is lower: less than 10 nM for the first, 10 to 100 nM for the second. The first is the more potent here.
